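Each compound was tested at five concentrations against cells in 96-well plates for 48 hours. GI50 marks 50% less growth.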 Calls of active or inactive are those of the source. Rule as the data show it: active = GI50 up to about 1.1 µM and inactive = higher.
Tests used:
Test in all cases: NCI-60 cell line screen, 48 h
SK-MEL-2 = system: SK-MEL-2
OVCAR-5 = system: OVCAR-5
SK-MEL-5 = system: SK-MEL-5
MOLT-4 = system: MOLT-4
Malme-3M = system: Malme-3M
HCT-15 = system: HCT-15
NCI-H460 = system: NCI-H460
NCI/ADR-RES = system: NCI/ADR-RES
SR = system: SR
RPMI-8226 = system: RPMI-8226
IGROV-1 = system: IGROV-1
HOP-92 = system: HOP-92
HCT-116 = system: HCT-116
OVCAR-4 = system: OVCAR-4
UACC-257 = system: UACC-257
A549 = system: A549
OVCAR-3 = system: OVCAR-3
CCRF-CEM = system: CCRF-CEM
MDA-N = system: MDA-N

| Structure (SMILES) | GI50 (SK-MEL-2) | GI50 (OVCAR-5) | GI50 (SK-MEL-5) | GI50 (MOLT-4) | GI50 (Malme-3M) | GI50 (HCT-15) | GI50 (NCI-H460) | GI50 (NCI/ADR-RES) | GI50 (SR) | GI50 (RPMI-8226) | GI50 (IGROV-1) | GI50 (HOP-92) | GI50 (HCT-116) | GI50 (OVCAR-4) | GI50 (UACC-257) | GI50 (A549) | GI50 (OVCAR-3) | GI50 (CCRF-CEM) | GI50 (MDA-N) |
| --- | --- | --- | --- | --- | --- | --- | --- | --- | --- | --- | --- | --- | --- | --- | --- | --- | --- | --- | --- |
| CN(C(=O)c1ccncc1)c1ccccc1 | > 100 µM (inactive) | > 100 µM (inactive) | > 100 µM (inactive) | > 100 µM (inactive) | > 100 µM (inactive) | > 100 µM | > 100 µM (inactive) | > 100 µM (inactive) | > 100 µM (inactive) | > 100 µM (inactive) | > 100 µM (inactive) | > 100 µM (inactive) | > 100 µM (inactive) | > 100 µM (inactive) | > 100 µM (inactive) | > 100 µM (inactive) | > 100 µM (inactive) | – | – |
| O=C1CC(c2cccc(F)c2)Nc2cc3c(cc21)OCO3 (configuration not stated) | 0.0356 µM (active) | 0.054 µM (active) | 0.0224 µM (active) | < 0.01 µM (active) | 0.0327 µM (active) | 0.0394 µM | 0.0418 µM (active) | 0.027 µM (active) | – | < 0.01 µM (active) | 0.0483 µM (active) | 0.531 µM (active) | 0.0533 µM (active) | 1.8 µM (inactive) | 0.0638 µM (active) | 0.0363 µM (active) | 0.0521 µM (active) | 0.033 µM (active) | 0.0113 µM (active) |
| COc1cc2c(c(OC)c1OC)-c1c(cc3c(c1OC)OCO3)CC(C)C(C)(O)C2OC(=O)c1ccccc1 (configuration not stated) | 25 µM (inactive) | > 100 µM (inactive) | 31.1 µM (inactive) | 5.58 µM (inactive) | 45.5 µM (inactive) | 33.2 µM | 33.3 µM (inactive) | – | 17.7 µM (inactive) | 22 µM (inactive) | 38.3 µM (inactive) | 12.2 µM (inactive) | 31.4 µM (inactive) | 35.3 µM (inactive) | 44.9 µM (inactive) | 42.1 µM (inactive) | 29.9 µM (inactive) | 25.9 µM (inactive) | 60.7 µM (inactive) |
| CC1=C(/C(C)=N/NS(=O)(=O)c2ccc(C)cc2)Sc2ccccc2N1 | 94.2 µM (inactive) | > 100 µM (inactive) | 47.5 µM (inactive) | 52.7 µM (inactive) | 77.3 µM (inactive) | > 100 µM | > 100 µM (inactive) | – | 59.7 µM (inactive) | 56.8 µM (inactive) | > 100 µM (inactive) | 81.8 µM (inactive) | > 100 µM (inactive) | > 100 µM (inactive) | 65.5 µM (inactive) | > 100 µM (inactive) | 58.2 µM (inactive) | 32.9 µM (inactive) | – |
| COC(=O)[C@H](CCSC)NC(=O)c1ccc(CNC(=O)/C=C/c2cccc(Oc3ccccc3)c2)cc1 | 14.8 µM (inactive) | > 100 µM (inactive) | 15.6 µM (inactive) | 8.83 µM (inactive) | 18.8 µM (inactive) | > 62.8 µM | 60.5 µM (inactive) | 43 µM (inactive) | 19.7 µM (inactive) | 45.5 µM (inactive) | 27.5 µM (inactive) | 9.75 µM (inactive) | > 100 µM (inactive) | 33.6 µM (inactive) | 11.5 µM (inactive) | 98.4 µM (inactive) | 23.3 µM (inactive) | 33.1 µM (inactive) | – |
| Fc1cc(-c2ncc(Cl)cc2Cl)c2cccccc1-2 | – | > 100 µM (inactive) | > 100 µM (inactive) | – | > 100 µM (inactive) | > 100 µM | > 100 µM (inactive) | > 100 µM (inactive) | – | – | > 100 µM (inactive) | – | > 100 µM (inactive) | – | > 100 µM (inactive) | > 100 µM (inactive) | > 100 µM (inactive) | – | > 100 µM (inactive) |
| Cc1cccc2c1Oc1ncccc1C2NC(=O)CN(C)C (configuration not stated) | > 10 µM (inactive) | > 10 µM (inactive) | – | > 10 µM (inactive) | > 10 µM (inactive) | > 10 µM | > 10 µM (inactive) | > 10 µM (inactive) | > 10 µM (inactive) | – | > 10 µM (inactive) | 3.77 µM (inactive) | – | > 10 µM (inactive) | > 10 µM (inactive) | > 10 µM (inactive) | > 10 µM (inactive) | > 10 µM (inactive) | – |
| Nc1nc(CCl)nc(N2CCOCC2)n1 | > 100 µM (inactive) | 19.9 µM (inactive) | 20.1 µM (inactive) | 26.9 µM (inactive) | – | 16 µM | 17.7 µM (inactive) | 29.4 µM (inactive) | 21.3 µM (inactive) | 32.4 µM (inactive) | 14.3 µM (inactive) | 16.8 µM (inactive) | 21.5 µM (inactive) | 17.4 µM (inactive) | 63.2 µM (inactive) | > 100 µM (inactive) | > 10 µM (inactive) | 18.6 µM (inactive) | – |

— ChEMBL document CHEMBL1201862, “PubChem BioAssay data set” (2004)
